The source of these data is EPA's ToxValDB 9.5 (doi:10.2903/j.efsa.2010.1906).

Converted amounts (≈) assume the structure as drawn.

The NOAEL is the highest dose or exposure tested at which no adverse effect was seen.

In data set [1] the test system is Lepomis macrochirus. To be noted: acute; duration: 96 hours; mortality.
In data set [2] the test system is Anas platyrhynchos. To be noted: reproductive.
In data set [3] the test system is Rattus norvegicus. To be noted: oral.
Data set [4] concerns Colinus virginianus. Particulars: acute, oral, mortality.
The subject of data set [5] is Daphnia magna. To be noted: chronic/long-term; duration: 21 days; reproduction.
Data set [6] deals with Pimephales promelas. To be noted: chronic/long-term; duration: 34 days; reproduction.
Data set [7] relates to Folsomia candida. To be noted: chronic/long-term, duration: 28 days.
Data set [8] has as its system Apis mellifera. Particulars: acute; duration: 48 hours; oral; unspecified; mortality.
Data set [9] relates to Mus musculus. To be noted: chronic; histopathology: neoplastic.
For data set [10], the system named is Landoltia sp. To be noted: acute; duration: 14 days.
The subject of data set [11] is Oryctolagus sp. Particulars: developmental; development.
Data set [12] relates to Bibionidae. Particulars: chronic/long-term; duration: 28 days; development.
The test system of data set [13] is Canidae. To be noted: subchronic; duration: 90 days; oral; F; Dog Other; body weight.
Data set [14] has as its system Tagia sp.

Take `CCOc1cc(Oc2ccc(C(F)(F)F)cc2Cl)ccc1[N+](=O)[O-]` [Oxyfluorfen]: the LC50 was 0.21 mg/L (≈ 0.581 µM) in data set [1]; 2.78 mg/kg in data set [7] (mortality); above 1000 mg/kg in [14] (acute, duration: 14 days, mortality). This compound also yielded an NOEL in data set [2] of 64.7 mg/kg-day. Besides, the LD50 is above 5000 mg/kg-day in data set [3] (acute, mortality); above 462 mg/kg-day in [4] (diet); above 2150 mg/kg-day in data set [4]; above 100 µg/piece in data set [8]. Moreover, the no observed adverse effect level (NOAEL) in data set [3] (chronic, duration: 2 years) turned out to be 20 mg/kg-day; in data set [9], 3 mg/kg-day; in data set [11] it was 30 mg/kg-day; in data set [13], 2.17 mg/kg-day. In addition, the NOEC in data set [5] worked out at 0.013 mg/L; in [6], 0.038 mg/L; in data set [7] (reproduction), 1.25 mg/kg; in [10], 0.00195 mg/L; in data set [12] it was 0.08 mg/L; in [14] (chronic/long-term, duration: 56 days), 24 mg/kg.
